Values quoted from earlier work in patent publication US20240196931A1, “BOTANICAL SUPPLEMENT AND METHOD FOR PREVENTING DISEASES, PROMOTING GROWTH AND SURVIVAL OF AN ANIMAL BY USING THE SAME” (ACADEMIA SINICA, priority 2022, published 2024).

Assays:
sepsis = sepsis induced by endotoxin or cecal ligation puncture
[1] = tested on: melanoma and breast cancer cell metastasis; settings: in vitro and in xenograft or allograft mouse tumor models

SMILES: CC/C=C\C/C=C\C/C=C\CCCCCCCC(=O)OC[C@H](CO[C@@H]1O[C@H](CO)[C@H](O)[C@H](O)[C@H]1O)OC(=O)CCCCCCC/C=C\C/C=C\C/C=C\CC [dLGG, 1,2-di-O-α-linolenoyl-3-O-β-galactopyranosyl-sn-glycerol]
- Effect against sepsis in mouse (sepsis): preventive and therapeutic effect
- Effect on melanoma and breast cancer cell metastasis [1]: suppressive effects
